# Patent US9987296B2, “Compositions including anthocyanin or anthocyanidin for the prevention or treatment of Articular cartilage-associated conditions” (priority 2008, dated 2018)
# “Also recorded” adds a separate entry of the source.
# Legend:
# Assay type in all cases: cell-based
# IGF-1 [1] = experiment: IGF-1 ELISA of culture media of human synovial explants; settings: for IGF-1 protein release in media: high vs low glucose
# Method: (§1) Synovial explants (n=6) were harvested from human donors undergoing total knee replacement. The specimens were trimmed of extraneous adipose tissue. In the two experiments, the synovial specimens were washed in low-glucose DMEM (1 g/L) for a few hours and then placed in the assigned treatment groups. In subsequent experiments the synovial specimens were washed in low-glucoses DMEM for 24 hours before treatment.
# (§2) In all experiments (n=4), the specimens were cultured for 48 hours in serum-free ITS (Insulin, Transferrin, Selenium) media diluted with either high- or low-glucose DMEM. In addition, various anthocyanins were added to both the high- and low-glucose groups. Low-glucose alone acted as a control group. After the two experiments, the level of media was adjusted relative to the weight of the tissue.
# (§3) Human IGF-1 protein secretion into the culture media was measured by ELISA (R & D Systems, Minneapolis, Minn.). Synovial culture media was centrifuged to remove any particulates. Controls and samples were added to ELISA wells which were pre-coated with a monoclonal antibody specific for IGF-1. Any IGF-1 present would be expected to be bound by the immobilized antibody. After washing away any unbound substances, an enzyme-linked polyclonal antibody specific for IGF-1 was added to the wells. Following a wash to remove any unbound antibody-enzyme reagent, a substrate solution was added to the wells. The media developed a color intensity in proportion to the amount of IGF-1 bound in the initial step. Optical density of each well was determined by using a microplate reader set to 450 nm. IGF-1 concentration in the sample was calculated by a standardized curve of IGF-I activity obtained by serial dilution of known protein concentrations.
# IGF-1 [2] = experiment: IGF-1 gene expression in human synovial explants; settings: for IGF-1 gene expression and production: synovial explants, together with glucose, overall conclusion
# Method: Synovial explants (N=6) were harvested from human donors undergoing either uni-compartmental or total knee replacement. In all but the first experiment, the specimens were trimmed of extraneous adipose tissue and washed in low glucose DMEM (1 g/l). The specimens in the first experiment were not trimmed of excess adipose tissue and were washed in high-glucose DMEM (4.5 g/L).
# In the first experiment (n=2), the specimens were cultured for 48 hours in 0.1% calf serum and either high- or low-glucose DMEM. In the second tow experiments (n=4), the specimens were cultured for 48 hours in serum-free ITS (Insulin, Transferrin, Selenium) media diluted with either high- or low-glucose DMEM. IGF-1 gene expression. Briefly, total RNA was extracted from synovial tissue using RNeasy Total RNA Kit (Qiagen, Inc., Santa Clarita, Calif.). Real-time quantitative RT-PCR was done using Taqman RT-PCR reagents (Applied Biosystems, Foster City, Calif.).
# as §3, with “Expression of IGF-1 was normalized to that of the housekeeping gene GAPDH. IGF-1 ELISA. Human” for “Human”, “ELISA (RD” for “ELISA (R & D”, “antibody-enzyme reagent.” for “antibody-enzyme reagent,”, “The medial” for “The media”, “IGF-1” for “IGF-1 concentration in the sample was calculated by a standardized curve of IGF-I”
# as §1, §2
# Briefly, total RNA was extracted from synovial tissue using RNeasy Total RNA Kit (Qiagen Inc., Santa Clarita, Calif.). Real-time quantitative RT-PCR was done using ‘ragman RT-PCR. reagents (Applied Biosystems, Foster City, Calif.). Expression of IGF-1 was normalized to that of the housekeeping gene GAPDH. The results of IGF-1 gene expression are only presented if detectable levels of low glucose alone were present and able to serve as a control group for relative-fold change in expression.
# IGF-1 [3] = experiment: Real time RT-PCR for IGF-1 in human chondrocytes; settings: for IGF-1 gene expression compared to IL-1 alone: 5 or 50 ug/mL with IL-1, 50 ug/mL alone (FIGS. 3, 4)
# Method: Chondrocytes were prepared by the enzymatic digestion of knee cartilage, as previously described. (Ahmed S et al., J Nutr 2005 135:20962102). Chondrocytes were plated (1×10^6 cells/mL) in 35 mm culture dishes (BD, Mountain View, Calif.) and cultured in DMEM:F12 (Mediatech, Herndon, Va.) supplemented with 10% FCS and 1% Penn:Strep for 72 hrs at 37° C. and 5% CO2 in a tissue culture incubator. Chondrocytes were serum starved overnight and then exposed to either kuromanin or cyanidin chloride (5 or 50 ug/mL), progrado (2 or 10 ug/mL) alone or in combination in fresh serum-free medium for 1 hr prior to the addition of IL-β.
# Total cytoplasmic RNA was prepared from primary cultures of human chondrocytes using a commercially available kit according to the instructions of the manufacturer (Qiagen, Valencia, Calif.). Real time quantitative RT-PCR with internal fluorescent hybridization probes was performed as previously described (Ahmed S et al., ECAM 2005 2:301-8) and the IGF-1 gene expression was quantified using a commercially available Gene Expression Assay kit (Applied Biosystems, CA). Expression of IGF-1 mRNA was normalized to […] mRNA expression. and the results were expressed as fold induction relative to controls.
# [4] = FIG. 22, volume titrated to tissue weight, in high glucose
# [5] = increasing glucose concentration, synovial tissue
smiles,measurement,setting,value
Oc1cc(O)c2cc(O)c(-c3ccc(O)c(O)c3)[o+]c2c1 [Cyanidin chloride],IGF-1 protein levels in media,"IGF-1 [1]; FIG. 21, 7 ml of media regardless of sample weight, with High Glucose, listed as Cyanidin",highest IGF-1 protein levels
same,IGF-1 protein levels in media,"IGF-1 [1]; FIG. 21, 7 ml of media regardless of sample weight, with High Glucose, listed as cyanidin",highest levels of IGF-1 in media
same,IGF-1 protein levels in media,"IGF-1 [1]; FIG. 22, volume titrated to tissue weight, combined with low glucose, listed as Cyanidin",greatest effect
same,IGF-1 protein levels in media,"IGF-1 [1]; FIG. 22, volume titrated to tissue weight, combined with low glucose, listed as cyanidin",greatest production of IGF-1 protein levels
same,IGF-1 protein levels in media,IGF-1 [1]; [4],inhibitory
same,level of IGF-1 protein in media,"IGF-1 [1]; FIG. 26, lower anthocyanin concentration (5 mM), in the presence of low glucose",highest level of IGF-1 protein
same,IGF-1 gene expression relative to low glucose alone,"IGF-1 [2]; FIG. 27, in the presence of high glucose",highest expression levels
same,IGF-1 gene expression and production,IGF-1 [2],elevate IGF-1 gene expression and production
same,IGF-1 gene expression,"IGF-1 [3]; 50 ug/mL dose, duplicate, called anomalous",elevated above control
same,IGF-1 gene expression compared to IL-1 alone,IGF-1 [3],increased IGF-1 gene expression more than kuromanin; also recorded: greater compared to IL-1 alone when treated with cyanidin alone or in combination with IL-1
OC[C@H]1O[C@@H](Oc2cc3c(O)cc(O)cc3[o+]c2-c2ccc(O)c(O)c2)[C@H](O)[C@@H](O)[C@@H]1O.[Cl-] [Kuromanin chloride],IGF-1 protein levels in media,"IGF-1 [1]; FIG. 22, volume titrated to tissue weight, combined with low glucose, listed as Kuromanin",greatest effect
same,IGF-1 protein levels in media,"IGF-1 [1]; FIG. 22, volume titrated to tissue weight, combined with low glucose, listed as kuromanin",greatest production of IGF-1 protein levels
same,IGF-1 protein levels in media,IGF-1 [1]; [4],inhibitory
same,IGF-1 gene expression,"IGF-1 [2]; FIG. 24, in the presence of high glucose",inhibitory
same,IGF-1 gene expression relative to low glucose alone,"IGF-1 [2]; FIG. 24, in the presence of low glucose",3 fold
same,IGF-1 gene expression and production,IGF-1 [2],elevate IGF-1 gene expression and production
same,IGF-1 gene expression compared to IL-1 alone,IGF-1 [3],greater compared to IL-1 alone when treated with kuromanin at high dose
same,IGF-1 gene expression,IGF-1 [3]; IL-1 with compound at 5 or 50 ug/mL,no further changing in this pattern
O=C[C@H](O)[C@@H](O)[C@H](O)[C@H](O)CO [glucose],level of IGF-1 protein in media,"IGF-1 [1]; FIG. 23, volume titrated to tissue weight, High Glucose alone (highest level)",above 2.00 ng/ml
same,level of IGF-1 protein in media,"IGF-1 [1]; FIG. 25, volume titrated to tissue weight, High Glucose alone",highest level of IGF-1 protein
same,level of IGF-1 protein in media,"IGF-1 [1]; FIG. 26, High Glucose alone",highest level of IGF-1 protein
same,IGF-I protein expression,"IGF-1 [1]; High Glucose alone, across the experiments of Example 7",most consistent increase in IGF-I protein expression
same,"IGF-1 levels in media, on average","IGF-1 [1]; high (4.5 g/L) vs low (1 g/L) glucose, 48 hours, 6 donors",more than doubled
same,"increase of IGF-1 in media, tissue that responded the most","IGF-1 [1]; high glucose, donor undergoing unicompartmental arthroplasty",5 ×
same,IGF-1 protein release in media,IGF-1 [1]; four donors,significant response
same,IGF-1 protein release in media,IGF-1 [1]; two donors,no effect on IGF-1 protein release in media
same,IGF-1 secretion,IGF-1 [1]; [5],"increase both IGF-1 gene expression and IGF-1 release; also recorded: increased IGF-1 secretion in synovial tissue, but in a donor dependent fashion"
same,IGF-1 gene expression relative to low glucose alone,"IGF-1 [2]; FIG. 24, High glucose alone",over 4 fold
same,IGF-1 gene expression relative to low glucose alone,"IGF-1 [2]; FIG. 27, High Glucose alone, grossly inflamed sample (RH)",highest expression levels
same,increase in IGF-1 gene expression compared to low glucose alone,"IGF-1 [2]; FIG. 28, High Glucose alone",12 fold
same,increase of IGF-1 gene expression,"IGF-1 [2]; high (4.5 g/L) vs low (1 g/L) glucose, 48 hours, three donors",up to 5 fold
same,IGF-1 gene expression,IGF-1 [2]; [5],increase both IGF-1 gene expression and IGF-1 release; also recorded: significantly increase; also recorded: consistently increased IGF-1 gene expression
